± gives the expanded uncertainty stated by the source.
Details: Liquid; Resistive pulse heating

Row | Critical pressure [kPa] | Critical temperature [K] | SMILES
1 | 1820 ± 70 | 868 ± 13 | OCCOCCOCCOCCOCCOCCO [3,6,9,12,15-pentaoxaheptadecane-1,17-diol]
2 | 3570 ± 140 | 788 ± 12 | OCCOCCOCCO [triethylene glycol]
3 | 2130 ± 90 | 842 ± 13 | OCCOCCOCCOCCOCCO [3,6,9,12-tetraoxatetradecane-1,14-diol]

Row | SMILES | Critical pressure [kPa] | Critical temperature [K]
4 | OCCOCCO [diethylene glycol] | 4830 ± 190 | 753 ± 11

— the NIST ThermoML archive (doi:10.1016/j.fluid.2018.05.011)
